Measured values from ChEMBL document CHEMBL3352551, “Synthesis and biological evaluation of novel allosteric enhancers of the A1 adenosine receptor based on 2-amino-3-(4'-chlorobenzoyl)-4-substituted-5-arylethynyl thiophene” (J Med Chem, 2014).
Calls of active or inactive are those of the source. No cut-off for these calls is given here.

How the values were obtained:
[1] = target: T1, Adenosine receptor A1 (Homo sapiens) (UniProt P30542); assay: Allosteric enhancer activity at human adenosine A1 receptor expressed in CHO cell membranes assessed as shift in CCPA binding Ki level at 10 uM by [3H]DPCPX competition binding assay
T1 sequence (whole entry): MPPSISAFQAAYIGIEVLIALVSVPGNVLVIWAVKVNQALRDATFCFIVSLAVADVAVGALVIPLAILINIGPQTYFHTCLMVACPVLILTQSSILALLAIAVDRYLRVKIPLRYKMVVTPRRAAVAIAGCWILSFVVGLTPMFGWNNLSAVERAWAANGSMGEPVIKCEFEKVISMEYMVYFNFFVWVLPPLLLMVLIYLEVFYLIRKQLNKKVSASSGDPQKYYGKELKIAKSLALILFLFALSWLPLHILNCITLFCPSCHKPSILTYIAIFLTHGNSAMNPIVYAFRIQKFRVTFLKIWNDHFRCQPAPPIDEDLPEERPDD

[2] = target: T2, Adenosine receptor A3 (Homo sapiens) (UniProt P0DMS8); assay: Displacement of [3H]MRE-3008-F20 from human adenosine 3 receptor expressed in CHO cell membranes at 10 uM
T2 sequence (whole entry): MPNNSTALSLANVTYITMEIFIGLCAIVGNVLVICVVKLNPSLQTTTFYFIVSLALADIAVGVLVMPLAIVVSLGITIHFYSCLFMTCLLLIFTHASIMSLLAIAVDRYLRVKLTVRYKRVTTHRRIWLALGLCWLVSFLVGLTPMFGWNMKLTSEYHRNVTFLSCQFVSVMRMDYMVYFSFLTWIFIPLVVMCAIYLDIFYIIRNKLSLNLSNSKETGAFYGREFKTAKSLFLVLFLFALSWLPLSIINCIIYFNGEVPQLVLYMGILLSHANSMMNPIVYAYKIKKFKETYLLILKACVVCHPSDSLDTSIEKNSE

[3] = target: T1, Adenosine receptor A1 (Homo sapiens); assay: Allosteric enhancer activity at human adenosine A1 receptor expressed in CHO cells assessed as inhibition of forskolin-induced cAMP production at 100 nM in presence of 1 pM CCPA; format: functional, cell-based
[4] = target: T1, Adenosine receptor A1 (Homo sapiens); assay: Allosteric enhancer activity at human adenosine A1 receptor expressed in CHO cell membranes assessed as shift in [3H]CCPA Bmax level at 10 uM by saturation binding assay
[5] = target: T1, Adenosine receptor A1 (Homo sapiens); assay: Displacement of [3H]DPCPX from human adenosine A1 receptor expressed in CHO cell membranes at 10 uM
[6] = target: T1, Adenosine receptor A1 (Homo sapiens); assay: Allosteric enhancer activity at human adenosine A1 receptor expressed in CHO cells assessed as inhibition of forskolin-induced cAMP production at 10 uM; format: functional, cell-based
[7] = target: Adenosine receptor A2a (Homo sapiens) (UniProt P29274); assay: Displacement of [3H]ZM241385 from human adenosine A2A receptor expressed in CHO cell membranes at 10 uM
[8] = target: T1, Adenosine receptor A1 (Homo sapiens); assay: Allosteric enhancer activity at human adenosine A1 receptor expressed in CHO cell membranes assessed as shift in [3H]CCPA Kd level at 10 uM by saturation binding assay

Chain of Adenosine receptor A2a (Homo sapiens) (P29274 whole entry): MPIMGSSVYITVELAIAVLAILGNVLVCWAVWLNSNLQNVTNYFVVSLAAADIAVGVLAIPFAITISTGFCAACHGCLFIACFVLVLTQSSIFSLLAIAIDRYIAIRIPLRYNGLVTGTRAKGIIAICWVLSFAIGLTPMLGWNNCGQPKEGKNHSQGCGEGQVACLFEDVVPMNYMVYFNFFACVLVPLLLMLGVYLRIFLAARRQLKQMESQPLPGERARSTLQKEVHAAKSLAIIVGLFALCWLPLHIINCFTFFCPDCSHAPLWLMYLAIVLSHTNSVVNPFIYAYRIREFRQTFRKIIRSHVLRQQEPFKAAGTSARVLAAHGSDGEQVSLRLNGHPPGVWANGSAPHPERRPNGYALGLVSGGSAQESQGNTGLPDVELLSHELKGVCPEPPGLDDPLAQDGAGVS

SMILES | fold change (FC) [1] | inhibition [2] | inhibition [3] | fold change (FC) [4] | inhibition [5] | inhibition [6] | inhibition [7] | Activity [8]
Cc1ccc(CCc2sc(N)c(C(=O)c3ccc(Cl)cc3)c2CC(C)(C)C)cc1 | 3.8 | < 15% | 45% | 5 | < 15% | 43% | < 15% | 
Nc1sc(-c2ccccc2)c(CN2CCN(c3ccccc3)CC2)c1C(=O)c1ccc(Cl)cc1 | 8.3 |  |  | 11.5 |  |  |  | 
Nc1sc(C#Cc2ccccc2)c(CN(C2CCCCC2)C2CCCCC2)c1C(=O)c1ccc(Cl)cc1 | 3.7 | < 15% | 19% | 1.2 | < 15% | 10% | < 15% | 
Nc1sc(C#Cc2ccccc2)c(-c2ccccc2)c1C(=O)c1ccc(Cl)cc1 | 1.5 | < 15% | 25% | 1.9 | < 15% | 24% | < 15% | 
Nc1sc(C#Cc2ccccc2)c(CN2CCN(c3ccc(Cl)cc3)CC2)c1C(=O)c1ccc(Cl)cc1 | 3.6 | < 15% | 35% | 3.4 | < 15% | 35% | < 15% | 
Cc1ccc(C#Cc2sc(N)c(C(=O)c3ccc(Cl)cc3)c2C)cc1 | 1.7 | < 15% | 36% | 2.3 | < 15% | 31% | < 15% | 
Nc1sc(CCc2ccccc2)cc1C(=O)c1ccc(Cl)cc1 | 1.3 | < 15% | 20% | 1.7 | < 15% | 22% | < 15% | 
Nc1sc(C#Cc2ccccc2)c(CN2CCN(c3ccc(C(F)(F)F)cc3)CC2)c1C(=O)c1ccc(Cl)cc1 | 3 | < 15% | 33% | 2.9 | < 15% | 31% | < 15% | 
Nc1sc(C#Cc2ccccc2)c(CN2CCN(c3ccc(Cl)c(Cl)c3)CC2)c1C(=O)c1ccc(Cl)cc1 | 1.7 | < 15% | 24% | 2.1 | < 15% | 22% | < 15% | 
Nc1sc(C#Cc2ccccc2)c(CN2CCN(c3ccc(Cl)c(C(F)(F)F)c3)CC2)c1C(=O)c1ccc(Cl)cc1 | 2.4 | < 15% | 36% | 2.7 | < 15% | 30% | < 15% | 
Nc1sc(C#Cc2ccccc2)cc1C(=O)c1ccc(Cl)cc1 | 1.5 | < 15% | 25% | 2 | < 15% | 20% | < 15% | 
Cc1c(CCc2ccccc2)sc(N)c1C(=O)c1ccc(Cl)cc1 | 1.6 | < 15% | 27% | 2.2 | < 15% | 28% | < 15% | 
Nc1sc(C#Cc2ccccc2)c(CN2CCN(c3ccccc3)CC2)c1C(=O)c1ccc(Cl)cc1 | 2.8 | < 15% | 31% | 2.8 | < 15% | 29% | < 15% | 
Nc1sc(CCc2ccccc2)c(-c2ccccc2)c1C(=O)c1ccc(Cl)cc1 | 1.6 | < 15% | 24% | 2.2 | < 15% | 25% | < 15% | 
Cc1c(C#Cc2ccccc2)sc(N)c1C(=O)c1ccc(Cl)cc1 | 1.5 | < 15% | 34% | 2.5 | < 15% | 27% | < 15% | 
Nc1sc(C#Cc2ccccc2)c(CN2CCN(c3ccc(F)cc3)CC2)c1C(=O)c1ccc(Cl)cc1 | 3.9 | < 15% | 38% | 3.9 | < 15% | 37% | < 15% | 
Nc1sc(-c2ccccc2)c(CN(C2CCCCC2)C2CCCCC2)c1C(=O)c1ccc(Cl)cc1 | 3.2 |  |  | 3.5 |  |  |  | 

Other lines, results leading:

fold change (FC) [1] | inhibition [2] | inhibition [3] | fold change (FC) [4] | inhibition [5] | inhibition [6] | inhibition [7] | Activity [8] | SMILES
4.8 |  |  | 6.9 |  |  |  |  | CC(C)(C)Cc1c(-c2ccccc2)sc(N)c1C(=O)c1ccc(Cl)cc1
3.5 | < 15% | 41% | 3.3 | < 15% | 40% | < 15% |  | CC(C)(C)Cc1c(CCc2ccccc2)sc(N)c1C(=O)c1ccc(Cl)cc1
4.1 | < 15% | 69% | 6.3 | < 15% | 66% | < 15% | inactive | CCCCCC#Cc1sc(N)c(C(=O)c2ccc(Cl)cc2)c1CC(C)(C)C
6.8 | < 15% | 74% | 7.1 | < 15% | 72% | < 15% |  | COc1ccc(C#Cc2sc(N)c(C(=O)c3ccc(Cl)cc3)c2CC(C)(C)C)cc1OC
3.9 | < 15% | 63% | 5.7 | < 15% | 60% | < 15% |  | CC(C)(C)Cc1c(C#Cc2ccsc2)sc(N)c1C(=O)c1ccc(Cl)cc1
7.5 | < 15% | 67% | 7 | < 15% | 68% | < 15% |  | Cc1cc(C)c(C#Cc2sc(N)c(C(=O)c3ccc(Cl)cc3)c2CC(C)(C)C)cc1C
3.7 | < 15% | 62% | 5.5 | < 15% | 60% | < 15% |  | CCCCCc1ccc(C#Cc2sc(N)c(C(=O)c3ccc(Cl)cc3)c2CC(C)(C)C)cc1
7.1 | < 15% | 71% | 7.5 | < 15% | 68% | < 15% |  | Cc1cccc(C#Cc2sc(N)c(C(=O)c3ccc(Cl)cc3)c2CC(C)(C)C)c1
4.3 |  |  | 6.1 |  |  |  |  | COc1ccc(-c2sc(N)c(C(=O)c3ccc(Cl)cc3)c2CC(C)(C)C)cc1
6 |  |  | 6.4 |  |  |  |  | Cc1ccc(-c2sc(N)c(C(=O)c3ccc(Cl)cc3)c2CC(C)(C)C)cc1
8.2 | < 15% | 79% | 7.4 | < 15% | 71% | < 15% | inactive | COc1ccc(C#Cc2sc(N)c(C(=O)c3ccc(Cl)cc3)c2CC(C)(C)C)cc1
4 | < 15% | 66% | 6.2 | < 15% | 62% | < 15% |  | Cc1ccc(C)c(C#Cc2sc(N)c(C(=O)c3ccc(Cl)cc3)c2CC(C)(C)C)c1
7.5 | < 15% | 73% | 7.2 | < 15% | 70% | < 15% |  | Cc1ccc(C#Cc2sc(N)c(C(=O)c3ccc(Cl)cc3)c2CC(C)(C)C)cc1
4.8 | < 15% | 71% | 8 | < 15% | 67% | < 15% |  | CC(C)(C)Cc1c(C#CC2CCCCC2)sc(N)c1C(=O)c1ccc(Cl)cc1
